Measurements: article PMC10023679, “Amide-to-ester substitution as a stable alternative to N-methylation for increasing membrane permeability in cyclic peptides” (Nature Communications, 2023)
Read-outs that look alike come from different tables or passages of the source. Non-standard residues stand in square brackets, D forms with d. Residues, ends and D or L forms follow the SMILES beside them. NMeY = CN[C@@H](Cc1ccc(O)cc1)C(=O)O; Hpla = O=C(O)[C@@H](O)Cc1ccc(O)cc1; Hica(2S) = CC(C)C[C@H](O)C(=O)O

Columns and labels:
in vitro = in vitro ADME; settings: PAMPA
[1] = Caco-2 assay (permeability across cell monolayers); assay type: in vitro ADME; settings: for efflux ratio: read-out: Efflux ratio, Pe (basolateral-to-apical)/Pe (apical-to-basolateral); for Papp: Caco-2, 1 μM compounds in HBSS (pH 7.4) containing 10 mM HEPES and 1% DMSO, 3 h incubation at 37 °C, read-out: Caco-2 permeability Pa
Caco-2 cells = experiment: Caco-2 assay (permeability across cell monolayers); assay type: in vitro ADME; settings: 55 μM
[2] = Stability in simulated intestinal fluid (SIF); assay type: in vitro ADME; settings: SIF-containing pancreatin, pH 6.8, 37 °C, 1–4 h
Procedure: (§1) The stability assay of peptides in SIF was conducted according to United States Pharmacopeia & National Formulary (USP 25-NF 20)[64] and the previous report[65] with some modifications as follows. SIF used in this study was prepared by dissolving pancreatin (1.25 mg/mL) (Sigma, P7545, 8 × USP specifications) in 50 mM phosphate buffer at pH 6.8. The solution was vortexed for 1 min, sonicated for 15 min, centrifuged at 20,000 × g for 10 min, and filtered before use. 57 μL of SIF was incubated at 37 °C for 15 min and 3 μL of 1 μM peptide solution in DMSO was added to the warmed […]. After 1, 2, or 4 h, 60 μL of ice-cold ultra-pure water containing 5% trifluoroacetic acid was added and 120 μL of 30% acetonitrile in ultra-pure water was added. The samples were filtered and injected into UPLC.

[3] = 1,9-decadiene-water distribution coefficient; assay type: physicochemical; settings: decadiene and aqueous buffer
Mouse serum stability = assay type: in vitro ADME; settings: mouse serum containing 1% DMSO, 37 °C; for Stability in mouse serum: up to 24 h
Procedure: Compounds were incubated in mouse serum containing 1% DMSO at 37 °C for 24 h in triplicate. At each time point, 20 μL of the solution was aliquoted and diluted four times using acetonitrile to precipitate serum proteins. After centrifugation, the supernatant was diluted with water and the concentration of the intact peptide was quantified by LC-MS. For other peptides, the amount of residual intact peptides was evaluated after incubation in mouse plasma at 37 °C for 30 min. The amount of intact peptides was determined by taking the ratio of the LC-MS peak area of intact peptides just before and after the incubation.

[4] = Stability in simulated gastric fluid (SGF); assay type: in vitro ADME; settings: SGF-containing pepsin, pH 1.2, 37 °C, 1–4 h
Procedure: as §1, with “SGF” for “SIF”, “pepsin (3.6” for “pancreatin (1.25”, “P7012, 3357 Unit/mg)” for “P7545, 8 × USP specifications)”, “an aqueous solution of 2 mg/mL sodium chloride (NaCl)” for “50 mM phosphate buffer”, “1.2.” for “6.8.”

Solubility assay = assay type: physicochemical; settings: phosphate buffer (pH 7.4) containing 1.2% DMSO, 37 °C, read-out: Water solubility

Row | Structure (SMILES) | Papp (in vitro) | efflux ratio ([1]; Caco-2, pH 7.4, Inhibitor (+): quinidine, sulfasalazine, benzbromarone, 2 h incubation) | efflux ratio ([1]; Caco-2, pH 7.4, Inhibitor (–), 1 μM, 2 h incubation) | Papp A→B ([1]; Caco-2, pH 7.4, Inhibitor (+): preincubated with 50 µM quinidine, 20 µM sulfasalazine, 30 µM benzbromarone, 2 h incubation, read-out: Pe (apical-to-basolateral)) | Papp B→A ([1]; Caco-2, pH 7.4, Inhibitor (+): preincubated with 50 µM quinidine, 20 µM sulfasalazine, 30 µM benzbromarone, 2 h incubation, read-out: Pe (basolateral-to-apical)) | Papp [1] | Papp A→B at 2 h, 1 μM ([1]; human, Caco-2, pH 7.4, Inhibitor (–), 1 μM, 2 h incubation, read-out: Pe (apical-to-basolateral)) | Papp B→A at 2 h, 1 μM ([1]; human, Caco-2, pH 7.4, Inhibitor (–), 1 μM, 2 h incubation, read-out: Pe (basolateral-to-apical)) | Caco-2 permeability compared with CP1 at higher concentration (Caco-2 cells) | Degradation in SIF [2] | log Ddec/w (1,9-decadiene–water distribution coefficient) [3] | Stability in mouse serum (Mouse serum stability) | Degradation in SGF [4] | solubility kinetic at 4 h (Solubility assay) | Time within which degraded in mouse serum (Mouse serum stability)
1 | CC(C)C[C@@H]1NC(=O)[C@@H](CC(C)C)NC(=O)[C@H](CC(C)C)OC(=O)[C@H](Cc2ccc(O)cc2)NC(=O)[C@H]2CCCN2C(=O)[C@H](CC(C)C)NC1=O [DP2] (cyclo(LL[dP]Y[Hica(2S)][dL])) | 2 ×10⁻⁶ cm/s | 1.05 | 27.2 | 14.6 ± 3.5 ×10⁻⁶ cm/s | 15.3 ± 1.1 ×10⁻⁶ cm/s | 0.9 ×10⁻⁶ cm/s | 1.5 ± 0.4 ×10⁻⁶ cm/s | 40.8 ± 11 ×10⁻⁶ cm/s | significantly higher permeability than CP1 | – | – | – | – | – | –
2 | CC(C)C[C@@H]1NC(=O)[C@@H](CC(C)C)NC(=O)[C@H](CC(C)C)NC(=O)[C@H](Cc2ccc(O)cc2)N(C)C(=O)[C@H]2CCCN2C(=O)[C@H](CC(C)C)NC1=O [MP1] (cyclo(LL[dP][NMeY]L[dL])) | 1.7 ×10⁻⁶ cm/s | – | – | – | – | 0.6 ×10⁻⁶ cm/s | – | – | – | no significant degradation | 0.052 | stable | no significant degradation | – | –
3 | CC(C)C[C@@H]1NC(=O)[C@H](Cc2ccc(O)cc2)NC(=O)[C@H]2CCCN2C(=O)[C@H](CC(C)C)NC(=O)[C@H](CC(C)C)NC(=O)[C@@H](CC(C)C)NC1=O [CP1] (cyclo(LL[dP]YL[dL])) | – | – | – | – | – | – | – | – | – | no significant degradation | −0.74 | stable | no significant degradation | > 100 µM | –
4 | CC(C)C[C@H](NC(=O)[C@H](CC(C)C)NC(=O)[C@@H](CC(C)C)NC(=O)[C@H](CC(C)C)NC(=O)[C@H](Cc1ccc(O)cc1)OC(=O)[C@H]1CCCN1)C(N)=O [DP1L-NH2] (H-[dP][Hpla]L[dL]LL-NH2) | – | – | – | – | – | – | – | – | – | – | – | – | – | – | ≤ 2 h
5 | CC(C)C[C@@H]1NC(=O)[C@H](Cc2ccc(O)cc2)OC(=O)[C@H]2CCCN2C(=O)[C@H](CC(C)C)NC(=O)[C@H](CC(C)C)NC(=O)[C@@H](CC(C)C)NC1=O [DP1] (cyclo(LL[dP][Hpla]L[dL])) | 2.9 ×10⁻⁶ cm/s | – | – | – | – | 2 ×10⁻⁶ cm/s | – | – | – | no significant degradation | 1.2 | stable | no significant degradation | – | –
